In US10087165B2, “Fluoroquinolones and use thereof to treat bacterial infections” (UNIVERSITÉ PIERRE ET MARIE CURIE—PARIS 6 (UPMC), priority 2014, dated 2018):
In brackets after ≈: the same amount, converted by molar mass. Where two headings read alike, the source gives them in different places.

How the values were obtained:
[1] = tested on: M. tuberculosis H37Rv GyrA D94G; type: cell-based
[2] = tested on: M. tuberculosis H37Rv GyrA A90V; type: cell-based
[3] = tested on: M. tuberculosis H37Rv GyrB D500N; type: cell-based
[4] = tested on: multidrug-resistant M. tuberculosis clinical strain GV1503014223; test: microbe, parasite or virus in culture; type: cell-based; conditions: Mycobacterium tuberculosis; MDR clinical strain; Table 3
[5] = tested on: multidrug-resistant M. tuberculosis clinical strain KC1503006247; test: microbe, parasite or virus in culture; type: cell-based; conditions: Mycobacterium tuberculosis; MDR clinical strain; Table 3
[6] = tested on: multidrug-resistant M. tuberculosis clinical strain XCC1503082245; test: microbe, parasite or virus in culture; type: cell-based; conditions: Mycobacterium tuberculosis; MDR clinical strain; Table 3
[7] = tested on: M. tuberculosis H37Rv GyrA D94G; conditions: Table 2, published previously (Poissy et al. 2010); cited from earlier work
[8] = tested on: M. tuberculosis H37Rv GyrA A90V; conditions: Table 2, published previously (Poissy et al. 2010); cited from earlier work
[9] = tested on: quinolone-resistant M. tuberculosis strains (GyrB D500N, GyrA D94G and GyrA A90V strains); type: cell-based

Row | Structure (SMILES) | MIC (M. tuberculosis) D94G [1] [µM] | MIC (M. tuberculosis) A90V [2] [µM] | MIC M. tuberculosis H37Rv GyrA D94G [1] [µM] | MIC M. tuberculosis H37Rv GyrA A90V [2] [µM] | MIC M. tuberculosis H37Rv GyrB D500N [3] [µM] | MIC [4] [µM] | MIC [5] [µM] | MIC [6] [µM] | MIC (M. tuberculosis) D94G [7] [µM] | MIC (M. tuberculosis) A90V [8] [µM] | antibacterial activity against quinolone-resistant M. tuberculosis strains (in words) [9]
1 | O=C(O)c1cn(C2CC2)c2cc(N3CCNCC3)c(F)cc2c1=O [Ciprofloxacin, ciprofloxacin, reference compound] | ≥24 | ≥24 | – | – | – | – | – | – | – | – | –
2 | CCCCCCCN1CCN(c2c(F)cc3c(=O)c(C(=O)O)cn(C4CC4)c3c2OC)CC1 [Compound 15, 1-cyclopropyl-6-fluoro-7-(4-heptylpiperazin-1-yl)-8-methoxy-4-oxo-1,4-dihydroquinoline-3-carboxylic acid] | – | – | 0.5 (≈ 0.23 µg/mL) | 2.2 (≈ 1.01 µg/mL) | 2.2 (≈ 1.01 µg/mL) | 1 (≈ 0.46 µg/mL) | 1 (≈ 0.46 µg/mL) | 1 (≈ 0.46 µg/mL) | – | – | –
3 | CCCCCCCCCN1CCN(c2c(F)cc3c(=O)c(C(=O)O)cn(C4CC4)c3c2OC)CC1 [Compound 17, 1-cyclopropyl-6-fluoro-8-methoxy-7-(4-nonylpiperazin-1-yl)-4-oxo-1,4-dihydroquinoline-3-carboxylic acid] | – | – | 2 (≈ 0.975 µg/mL) | 2 (≈ 0.975 µg/mL) | 0.5 (≈ 0.244 µg/mL) | < 0.12 | < 0.12 | 1 (≈ 0.488 µg/mL) | – | – | –
4 | CCCCCCCCCCCN1CCN(c2c(F)cc3c(=O)c(C(=O)O)cn(C4CC4)c3c2OC)CC1 [Compound 19, 1-cyclopropyl-6-fluoro-8-methoxy-4-oxo-7-(4-undecylpiperazin-1-yl)-1,4-dihydroquinoline-3-carboxylic acid] | – | – | 10 (≈ 5.16 µg/mL) | 10 (≈ 5.16 µg/mL) | 2 (≈ 1.03 µg/mL) | 0.5 (≈ 0.258 µg/mL) | 0.12 (≈ 0.0619 µg/mL) | 0.5 (≈ 0.258 µg/mL) | – | – | –
5 | CCCCCCCCCCCCN1CCN(c2c(F)cc3c(=O)c(C(=O)O)cn(C4CC4)c3c2OC)CC1 [Compound 20, 1-cyclopropyl-7-(4-dodecylpiperazin-1-yl)-6-fluoro-8-methoxy-4-oxo-1,4-dihydroquinoline-3-carboxylic acid] | – | – | 1.9 (≈ 1.01 µg/mL) | 1.9 (≈ 1.01 µg/mL) | 0.23 (≈ 0.122 µg/mL) | 0.47 (≈ 0.249 µg/mL) | 0.47 (≈ 0.249 µg/mL) | 0.47 (≈ 0.249 µg/mL) | – | – | –
6 | COc1c(N2CCNC(C)C2)c(F)cc2c(=O)c(C(=O)O)cn(C3CC3)c12 (stereo not drawn) [Gatifloxacin, gatifloxacin] | – | – | – | – | – | – | – | – | 2.66 (≈ 0.999 µg/mL) | 5.33 (≈ 2 µg/mL) | –
7 | CCCCCCCCCCN1CCN(c2cc3c(cc2F)c(=O)c(C(=O)O)cn3C2CC2)CC1 [Quin 9, 1-cyclopropyl-7-(4-decylpiperazin-1-yl)-6-fluoro-4-oxo-1,4-dihydroquinoline-3-carboxylic acid] | ≥4.8 | ≥4.8 | – | – | – | – | – | – | – | – | –
8 | CCCCCCCCN1CCN(c2cc3c(cc2F)c(=O)c(C(=O)O)cn3C2CC2)CC1 [Quin 16, 1-cyclopropyl-6-fluoro-7-(4-octylpiperazin-1-yl)-4-oxo-1,4-dihydroquinoline-3-carboxylic acid] | 13.5 (≈ 5.99 µg/mL) | 6.7 (≈ 2.97 µg/mL) | – | – | – | – | – | – | – | – | –
9 | CCCCCN1CCN(c2c(F)cc3c(=O)c(C(=O)O)cn(C4CC4)c3c2OC)CC1 [Quin 17, 1-cyclopropyl-6-fluoro-8-methoxy-4-oxo-7-(4-pentylpiperazin-1-yl)-1,4-dihydroquinoline-3-carboxylic acid] | >18.5 | 18.5 (≈ 7.98 µg/mL) | – | – | – | – | – | – | – | – | –
10 | CCCCCCCCN1CCN(c2c(F)cc3c(=O)c(C(=O)O)cn(C4CC4)c3c2OC)CC1 [Quin 18, 1-cyclopropyl-6-fluoro-8-methoxy-7-(4-octylpiperazin-1-yl)-4-oxo-1,4-dihydroquinoline-3-carboxylic acid] | 2 (≈ 0.947 µg/mL) | 0.5 (≈ 0.237 µg/mL) | 2 (≈ 0.947 µg/mL) | 2 (≈ 0.947 µg/mL) | <0.12 | < 0.12 | < 0.12 | 0.12 (≈ 0.0568 µg/mL) | – | – | high antibacterial activity
11 | CCCCCCCCCCN1CCN(c2c(F)cc3c(=O)c(C(=O)O)cn(C4CC4)c3c2OC)CC1 [Quin 19, 1-cyclopropyl-7-(4-decylpiperazin-1-yl)-6-fluoro-8-methoxy-4-oxo-1,4-dihydroquinoline-3-carboxylic acid] | 1 (≈ 0.502 µg/mL) | 0.5 (≈ 0.251 µg/mL) | 2 (≈ 1 µg/mL) | 1 (≈ 0.502 µg/mL) | 0.5 (≈ 0.251 µg/mL) | < 0.12 | < 0.12 | 0.5 (≈ 0.251 µg/mL) | – | – | high antibacterial activity
12 | CCCCCCCCCCCCCCCCN1CCN(c2c(F)cc3c(=O)c(C(=O)O)cn(C4CC4)c3c2OC)CC1 [Quin 20, 1-cyclopropyl-6-fluoro-7-(4-hexadecylpiperazin-1-yl)-8-methoxy-4-oxo-1,4-dihydroquinoline-3-carboxylic acid] | >13.7 | 13.7 (≈ 8.03 µg/mL) | – | – | – | – | – | – | – | – | –
